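How tested: cells in 96-well plates exposed to compound for 48 hours at five concentrations. GI50 marks 50% less growth.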 Activity calls are given as the source filed them. Cut-off read from the data, not from the text of the source: active = GI50 up to about 1.1 µM and inactive = higher. Where only a bound is given, the exact number is not on record here.

Test systems include MDA-N; TK-10; Hs-578T; RPMI-8226; NCI-H460; SW-620; SF-268; KM12; SK-MEL-5; A498; DU-145; SK-OV-3; RXF 393; CCRF-CEM; PC-3; K562; MOLT-4; MCF7; SK-MEL-2; LXFL 529.
What all share (experiment): DTP human tumour cell line panel, 48 h

In general, GI50 refers to the concentration giving 50% growth inhibition. Consider `O=C1c2ccccc2C(=O)N1CCCSc1ccccc1`, for which the GI50 in the assay on MDA-N is 91.4 µM (inactive); in the assay on TK-10 it was > 100 µM (inactive); in the assay on Hs-578T it was > 100 µM (inactive); with RPMI-8226 it was 42.8 µM (inactive); with NCI-H460, 90.6 µM (inactive); in the assay with SW-620 it was > 100 µM (inactive). The GI50 is > 100 µM (inactive) in the assay with SF-268; 94.4 µM (inactive) with KM12; 32.7 µM (inactive) in the assay with SK-MEL-5; 33 µM (inactive) with A498; > 100 µM (inactive) in the assay on DU-145; > 100 µM (inactive) in the assay with SK-OV-3. For the same compound, the GI50 with RXF 393 was 63.7 µM (inactive); in the assay with CCRF-CEM, 38.5 µM (inactive); with PC-3, 92 µM (inactive); with K562, 77.1 µM (inactive); in the assay on MOLT-4 it was 31.8 µM (inactive); in the assay with MCF7, 78.3 µM (inactive). Further, the GI50 in the assay with SK-MEL-2 is > 100 µM (inactive).

As for `CCOC(=O)CCC(NC(=O)Cc1ccc(Nc2nc3ccccc3nc2-c2cccs2)cc1)C(=O)OCC` (stereo not drawn), the GI50 in the assay on MDA-N is > 100 µM (inactive); with TK-10, 23.5 µM (inactive); with Hs-578T it was 25.1 µM (inactive); in the assay on RPMI-8226, > 100 µM (inactive); in the assay with NCI-H460, 81.3 µM (inactive); with SW-620, > 100 µM (inactive). Also, the GI50 was 24 µM (inactive) with SF-268; > 100 µM (inactive) in the assay with KM12; 37.4 µM (inactive) with SK-MEL-5; 69.7 µM (inactive) in the assay on A498; 44.2 µM (inactive) in the assay on DU-145; 40.8 µM (inactive) in the assay on SK-OV-3. The GI50 is 12.9 µM (inactive) in the assay with RXF 393; > 100 µM (inactive) in the assay on CCRF-CEM; 45.7 µM (inactive) in the assay with PC-3; > 100 µM (inactive) in the assay on K562; > 100 µM (inactive) in the assay on MOLT-4; 41.1 µM (inactive) with MCF7. Moreover, the GI50 in the assay on SK-MEL-2 was 54.3 µM (inactive).

`CC1OC(OC2C(CO)OC(O[C@H]3CC[C@@]4(C)C(=CC[C@H]5[C@@H]6C[C@@H]7O[C@](O)(CC[C@H](CO)COC8OC(CO)C(O)C(O)C8O)[C@@H](C)[C@@H]7[C@@]6(C)CC[C@@H]54)C3)C(OC3OC(C)C(O)C(O)C3O)C2O)C(O)C(O)C1O` (stereo partly drawn): the GI50 with MDA-N, in the assay on TK-10, with Hs-578T, in the assay with RPMI-8226, in the assay with NCI-H460 and with SW-620 was > 100 µM (inactive) in each case. Besides, the GI50 in the assay with SF-268, in the assay with KM12, in the assay with SK-MEL-5, in the assay with A498, in the assay on DU-145 and in the assay on SK-OV-3 was > 100 µM (inactive) throughout. For the same compound, the GI50 in the assay with RXF 393, with CCRF-CEM, in the assay on PC-3, in the assay on K562, with MOLT-4 and in the assay on MCF7 was > 100 µM (inactive) throughout. Besides, the GI50 with SK-MEL-2 was > 100 µM (inactive).

For `CCOC(=O)Cc1c(C(=O)OCC)[n+]([O-])c2cc(Cl)c(Cl)cc2[n+]1[O-]`, the GI50 in the assay with MDA-N was 2.62 µM (inactive); in the assay on TK-10 it was 1.28 µM (inactive); with Hs-578T, 2.27 µM (inactive); with RPMI-8226 it was 0.431 µM (active); in the assay with NCI-H460 it was 1.45 µM (inactive); with SW-620, 1.52 µM (inactive). Besides, the GI50 is 2.44 µM (inactive) with SF-268; 1.32 µM (inactive) with KM12; 1.47 µM (inactive) in the assay on SK-MEL-5; 2.31 µM (inactive) in the assay with A498; 1.69 µM (inactive) in the assay on DU-145; 3.77 µM (inactive) in the assay on SK-OV-3. Further, the GI50 in the assay on RXF 393 was 2.12 µM (inactive); with CCRF-CEM, 3.13 µM (inactive); with PC-3 it was 2.1 µM (inactive); in the assay on K562 it was 2.62 µM (inactive); in the assay on MOLT-4, 1.56 µM (inactive); in the assay with MCF7, 1.57 µM (inactive). For the same compound, the GI50 in the assay on SK-MEL-2 was 2.59 µM (inactive).

`Cc1cc(Nc2ccc(/N=N/c3ccc(O)c4ncccc34)cc2)nc(C)n1`: the GI50 is 6.62 µM (inactive) in the assay on MDA-N; 17.9 µM (inactive) in the assay on TK-10; 7.03 µM (inactive) in the assay with Hs-578T; 5.61 µM (inactive) in the assay on RPMI-8226; 6.93 µM (inactive) in the assay on NCI-H460; 13.5 µM (inactive) in the assay with SW-620. Besides, the GI50 in the assay with SF-268 was 14.6 µM (inactive); with KM12 it was 12.4 µM (inactive); with SK-MEL-5, 10.8 µM (inactive); in the assay on A498, 21.6 µM (inactive); with DU-145, 18.2 µM (inactive); in the assay with SK-OV-3, 23.9 µM (inactive). In addition, the GI50 in the assay with RXF 393 was 12.7 µM (inactive); in the assay with CCRF-CEM it was 2.75 µM (inactive); in the assay on PC-3, 14.4 µM (inactive); with K562 it was 3.78 µM (inactive); in the assay on MOLT-4, 3.93 µM (inactive); with MCF7, 11 µM (inactive). For the same compound, the GI50 in the assay with SK-MEL-2 is 13.8 µM (inactive).

Regarding `O=c1c(C(c2ccc([N+](=O)[O-])cc2)c2c(O)c3ccccc3n(-c3ccccc3)c2=O)c(O)c2ccccc2n1-c1ccccc1`, the GI50 is 44 µM (inactive) in the assay on TK-10; 12.2 µM (inactive) in the assay on RPMI-8226; 18.4 µM (inactive) in the assay on SW-620; 15.3 µM (inactive) with SF-268; 17.7 µM (inactive) in the assay on KM12; 11.4 µM (inactive) in the assay on SK-MEL-5. In addition, the GI50 with SK-OV-3 is 7.38 µM (inactive); in the assay with LXFL 529 it was 8.05 µM (inactive); in the assay with RXF 393, 14.4 µM (inactive); in the assay with CCRF-CEM it was 1.51 µM (inactive); in the assay on K562 it was 16.6 µM (inactive); in the assay with MOLT-4 it was 2.7 µM (inactive). The GI50 in the assay with SK-MEL-2 was 14.5 µM (inactive).

In the case of `O=C(O)c1nc(-c2ccccc2)ncc1-c1nnnn1-c1ccccc1`, the GI50 in the assay with MDA-N, with TK-10, with Hs-578T, with RPMI-8226, in the assay with NCI-H460 and in the assay on SW-620 was > 100 µM (inactive) in each case. Moreover, the GI50 with SF-268, in the assay on KM12, in the assay on SK-MEL-5, in the assay with A498, in the assay on DU-145 and in the assay with SK-OV-3 was > 100 µM (inactive) in each case. The GI50 with RXF 393, in the assay on CCRF-CEM, with PC-3, in the assay on K562, in the assay with MOLT-4 and in the assay on MCF7 was > 100 µM (inactive) in each case. Besides, the GI50 in the assay with SK-MEL-2 was > 100 µM (inactive).

Consider `NC1CCC2(O)c3ccccc3C2C1` (stereo not drawn), for which the GI50 in the assay with TK-10, with RPMI-8226, in the assay with NCI-H460, in the assay on SW-620, with SF-268 and in the assay with KM12 was > 100 µM (inactive) each time. For the same compound, the GI50 in the assay with SK-MEL-5, in the assay with SK-OV-3, in the assay on LXFL 529, with RXF 393, in the assay on CCRF-CEM and with K562 was > 100 µM (inactive) throughout. In addition, the GI50 in the assay with MOLT-4 and with SK-MEL-2 was > 100 µM (inactive) in each case.

`COc1ccc(/C=C(/C(=O)c2ccc(Cl)cc2)N2C=CC=CC2=C(C#N)C#N)cc1OC`: the GI50 was 4.55 µM (inactive) with MDA-N; 6.32 µM (inactive) with TK-10; 1.66 µM (inactive) with Hs-578T; 2.47 µM (inactive) in the assay with RPMI-8226; 12.9 µM (inactive) in the assay on NCI-H460; 1.91 µM (inactive) in the assay with SW-620. Further, the GI50 in the assay on SF-268 was 3.55 µM (inactive); in the assay with KM12, 19.1 µM (inactive); with SK-MEL-5, 9.25 µM (inactive); with A498, 14.9 µM (inactive); with DU-145, 13.7 µM (inactive); in the assay on SK-OV-3 it was 24.4 µM (inactive). The GI50 is 2.03 µM (inactive) in the assay with RXF 393; 0.115 µM (active) with CCRF-CEM; 2.74 µM (inactive) with PC-3; 0.698 µM (active) in the assay with K562; 0.685 µM (active) with MOLT-4; 3.66 µM (inactive) with MCF7. Further, the GI50 in the assay on SK-MEL-2 is 15.3 µM (inactive).

As for `COC(=O)C1C2OC(C)(C)OC2CN1S(=O)(=O)c1ccc(C)cc1` (stereo not drawn), the GI50 in the assay on MDA-N, in the assay on TK-10, in the assay with Hs-578T, in the assay with RPMI-8226, in the assay with NCI-H460 and in the assay with SW-620 was > 100 µM (inactive) in each case. The GI50 in the assay with SF-268, in the assay with KM12, in the assay on SK-MEL-5, with A498, in the assay with DU-145 and in the assay with SK-OV-3 was > 100 µM (inactive) throughout. Further, the GI50 in the assay on RXF 393, in the assay on CCRF-CEM, in the assay on PC-3, in the assay on K562, in the assay on MOLT-4 and with MCF7 was > 100 µM (inactive) each time. Moreover, the GI50 in the assay on SK-MEL-2 was > 100 µM (inactive).

For `CC1ON2CCCC2[C@H]1C(=O)N1C2CC3CCC2(CS1(=O)=O)C3(C)C` (stereo partly drawn), the GI50 in the assay with MDA-N, with TK-10, with Hs-578T, in the assay with RPMI-8226, in the assay on NCI-H460 and with SW-620 was > 100 µM (inactive) in each case. The GI50 with SF-268, in the assay with KM12, in the assay with SK-MEL-5, in the assay with A498, in the assay with DU-145 and in the assay with SK-OV-3 was > 100 µM (inactive) each time. For the same compound, the GI50 with RXF 393, with CCRF-CEM, in the assay on PC-3, in the assay with K562, with MOLT-4 and in the assay on MCF7 was > 100 µM (inactive) in each case. Besides, the GI50 with SK-MEL-2 is > 100 µM (inactive).
